Measurements published in PMC6521598, “Identification of GLPG/ABBV-2737, a Novel Class of Corrector, Which Exerts Functional Synergy With Other CFTR Modulators” (Frontiers in Pharmacology, 2019).

Experiments:
[1] = parameters: method as in Brearley et al., 2017; details: healthy volunteers; ref Brearley et al., 2017; cited from earlier work
wild type CFTR = wild type CFTR (Homo sapiens, UniProt P13569); assay: CFTR activity in normal HBE cells (NHBE); format: cell-based; parameters: University of North Carolina; host or cells: primary normal human bronchial epithelial cells; details: forskolin 0.1 or 0.3 μM, potentiator GLPG2451 10 μM added afterwards
Description: Bronchial epithelial cells isolated from transplanted lungs from normal (wt CFTR) or CF patients homozygous for the F508del CFTR mutation, were obtained from McGill University (Montreal, QC, Canada) and University of North Carolina (Chapel Hill, NC, United States). Cells were isolated from lungs obtained from donors undergoing a planned transplantation. These primary cells were cultured directly on type IV collagen-coated polycarbonate Transwell supports with a diameter of 6.5 mm and pore size of 0.4 μm (Costar, #3397) for 18–25 days in air liquid (ali) interface essentially as previously described ([Fulcher et al., 2005]) for TECC. A similar cell culture protocol was used for Ussing chambers but using type IV collagen-coated polycarbonate Millicell supports with a diameter of 12 mm and a pore size of […] (Millicell, PIHP01250).
Corrector and/or potentiator compound(s) were added on the basolateral side of the HBEs for 24 h to rescue F508del CFTR. […] The transepithelial potential (PD) and transepithelial resistance (Rt) were measured in an open circuit and transformed to Ieq using Ohm’s law. […]
FIGURE 6 Effects of GLPG2737 on normal human bronchial epithelial cells (NHBE) and HEK cells expressing WT CFTR. […] (D) NHBE treated for 24 h with 1 μM GLPG2737 or DMSO (control), CFTR channel was activated with either 0.1 μM or 0.3μM forskolin, measured Isc shown in gray. […]

F508del CFTR = F508del CFTR (Homo sapiens, UniProt P13569, DEL508-508); assay: Western blot (Band B/C) in CSE-MEM cells; format: cell-based; parameters: University of North Carolina; host or cells: primary human bronchial epithelial cells, F508del/F508del donors; details: 24 h, compound alone
Description: For Western blot, U2OS EA-MEM F508del CFTR (CSE-MEM) cells were seeded in six well plates at a density of 2.5e6 cells/well on day 1 and incubated at 37°C and 5% CO2. Cells were treated with corrector compounds on day 2 and were lysed 24 h later. For the lysis, cells were washed with 1 ml PBS and incubated with 300 μl cell dissociation solution/well (Sigma, Cat No. C5789-100ML) for 15 min at 37°C and 5% CO2. Medium was collected and centrifuged for 5 min at 1,000 rpm and the supernatant removed. The pellet was re-suspended for 30 min on ice in the lysis buffer containing 1% NP-40, 0.5% sodium deoxycholate, 200 mM NaCl, 10 mM Tris pH 7.8, 1 mM EDTA and a protease inhibitor cocktail tablet from Roche (Cat No. 11873580001). For gel electrophoresis, 2.5 μl 10X Nupage reducing agent (Invitrogen, Cat No. NP0004) and 6 μl 4X Nupage sample buffer (Invitrogen, Cat No. NP0007) were added to 17 μl lysate and incubated for 15 min at 37°C. […]

F508del CFTR, sequence (P13569 with tags, fused parts or gaps DEL508-508): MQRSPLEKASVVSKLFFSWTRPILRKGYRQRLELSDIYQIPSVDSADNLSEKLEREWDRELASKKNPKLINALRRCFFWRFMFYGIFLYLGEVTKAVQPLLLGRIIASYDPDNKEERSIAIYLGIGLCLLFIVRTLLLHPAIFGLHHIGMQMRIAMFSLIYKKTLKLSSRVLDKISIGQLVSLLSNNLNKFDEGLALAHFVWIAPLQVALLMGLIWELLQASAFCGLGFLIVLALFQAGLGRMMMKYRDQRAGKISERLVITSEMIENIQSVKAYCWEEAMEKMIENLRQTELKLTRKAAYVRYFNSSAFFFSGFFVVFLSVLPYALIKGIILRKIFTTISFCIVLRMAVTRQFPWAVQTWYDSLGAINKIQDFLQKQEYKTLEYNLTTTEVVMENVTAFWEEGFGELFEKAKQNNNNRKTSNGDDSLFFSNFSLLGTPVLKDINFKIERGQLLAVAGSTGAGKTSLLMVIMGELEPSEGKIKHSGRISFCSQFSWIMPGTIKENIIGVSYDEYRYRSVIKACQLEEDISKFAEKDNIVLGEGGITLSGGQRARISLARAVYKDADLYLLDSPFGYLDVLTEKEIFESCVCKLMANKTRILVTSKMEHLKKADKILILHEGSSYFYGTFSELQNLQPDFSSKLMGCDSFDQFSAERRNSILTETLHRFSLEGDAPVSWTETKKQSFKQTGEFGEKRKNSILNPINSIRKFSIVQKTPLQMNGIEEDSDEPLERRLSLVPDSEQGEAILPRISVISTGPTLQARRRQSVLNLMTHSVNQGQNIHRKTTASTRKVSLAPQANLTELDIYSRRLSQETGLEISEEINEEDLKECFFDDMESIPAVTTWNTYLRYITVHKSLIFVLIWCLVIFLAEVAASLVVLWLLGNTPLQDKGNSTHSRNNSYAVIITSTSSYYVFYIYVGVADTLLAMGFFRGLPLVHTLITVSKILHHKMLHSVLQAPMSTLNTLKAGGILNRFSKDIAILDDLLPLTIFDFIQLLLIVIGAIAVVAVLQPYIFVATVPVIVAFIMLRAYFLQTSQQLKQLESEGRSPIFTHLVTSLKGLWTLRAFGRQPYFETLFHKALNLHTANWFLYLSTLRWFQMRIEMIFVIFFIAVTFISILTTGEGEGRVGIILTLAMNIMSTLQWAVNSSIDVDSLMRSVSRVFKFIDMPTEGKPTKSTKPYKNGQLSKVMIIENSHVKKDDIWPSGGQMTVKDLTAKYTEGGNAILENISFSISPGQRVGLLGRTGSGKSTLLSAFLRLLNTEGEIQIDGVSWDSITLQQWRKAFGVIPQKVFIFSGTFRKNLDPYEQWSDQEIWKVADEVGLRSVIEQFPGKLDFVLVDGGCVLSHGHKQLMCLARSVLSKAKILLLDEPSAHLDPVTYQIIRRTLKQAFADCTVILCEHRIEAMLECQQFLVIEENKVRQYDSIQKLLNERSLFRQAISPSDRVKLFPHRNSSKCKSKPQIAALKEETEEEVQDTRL
wild type CFTR, sequence (P13569 whole entry): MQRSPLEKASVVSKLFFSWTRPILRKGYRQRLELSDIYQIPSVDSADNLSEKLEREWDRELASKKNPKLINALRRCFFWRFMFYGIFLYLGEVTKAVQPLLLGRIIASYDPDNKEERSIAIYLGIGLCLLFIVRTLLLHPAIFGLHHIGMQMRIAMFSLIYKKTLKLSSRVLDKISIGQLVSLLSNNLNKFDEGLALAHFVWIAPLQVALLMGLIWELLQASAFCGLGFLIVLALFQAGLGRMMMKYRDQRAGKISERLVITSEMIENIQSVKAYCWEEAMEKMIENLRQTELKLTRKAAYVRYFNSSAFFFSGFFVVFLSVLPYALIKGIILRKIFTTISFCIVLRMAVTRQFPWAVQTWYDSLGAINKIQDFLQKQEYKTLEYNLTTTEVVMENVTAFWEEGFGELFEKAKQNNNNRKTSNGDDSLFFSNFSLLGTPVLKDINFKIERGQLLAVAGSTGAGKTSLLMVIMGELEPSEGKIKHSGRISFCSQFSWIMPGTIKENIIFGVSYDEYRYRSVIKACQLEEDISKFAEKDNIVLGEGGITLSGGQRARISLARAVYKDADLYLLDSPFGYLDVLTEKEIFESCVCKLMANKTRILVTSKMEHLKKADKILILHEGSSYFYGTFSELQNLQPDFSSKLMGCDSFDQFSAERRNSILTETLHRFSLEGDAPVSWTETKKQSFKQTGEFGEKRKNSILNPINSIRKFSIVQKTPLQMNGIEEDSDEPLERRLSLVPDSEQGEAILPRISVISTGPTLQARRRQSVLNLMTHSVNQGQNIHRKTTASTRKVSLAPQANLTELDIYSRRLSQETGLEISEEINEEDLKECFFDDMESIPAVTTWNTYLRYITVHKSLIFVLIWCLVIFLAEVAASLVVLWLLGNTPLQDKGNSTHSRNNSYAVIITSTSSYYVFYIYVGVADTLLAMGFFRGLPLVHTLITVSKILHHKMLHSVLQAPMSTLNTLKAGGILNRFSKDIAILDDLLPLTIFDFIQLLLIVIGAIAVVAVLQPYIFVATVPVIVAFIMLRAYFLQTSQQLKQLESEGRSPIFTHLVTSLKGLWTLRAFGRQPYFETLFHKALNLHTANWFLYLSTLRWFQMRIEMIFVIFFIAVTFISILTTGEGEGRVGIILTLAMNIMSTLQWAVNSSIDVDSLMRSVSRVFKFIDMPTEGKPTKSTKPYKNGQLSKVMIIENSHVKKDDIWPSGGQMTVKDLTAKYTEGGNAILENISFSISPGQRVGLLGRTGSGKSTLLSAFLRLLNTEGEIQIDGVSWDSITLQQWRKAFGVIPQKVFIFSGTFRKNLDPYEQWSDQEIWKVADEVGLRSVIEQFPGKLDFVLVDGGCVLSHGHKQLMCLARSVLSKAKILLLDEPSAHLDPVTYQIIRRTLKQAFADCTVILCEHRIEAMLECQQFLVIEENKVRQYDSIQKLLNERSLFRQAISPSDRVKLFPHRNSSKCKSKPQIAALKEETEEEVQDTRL

Band C (mature complex-glycosylated F508del CFTR) (F508del CFTR): confirmed
SMILES: COC1CCN(C2CCN(c3cc(C(=O)NS(=O)(=O)N(C)C)nc4c3c(C3CCC3)nn4-c3ccc(F)cc3)CC2)CC1 [GLPG2737]
observed exposure in humans [1]: dose linear
CFTR activity (wild type CFTR): reduced CFTR activity which could be rescued upon addition of a potentiator
